Experimental data from ChEMBL document CHEMBL1201862, “PubChem BioAssay data set” (2004).
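These data come from cells grown in 96-well plates and exposed to compound for 48 hours at five concentrations. GI50: concentration for 50% inhibition of growth.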 The source made the active and inactive calls. Rule as the data show it: active = GI50 up to about 1.1 µM and inactive = higher.

Assays:
Assay in all cases: NCI tumour cell line growth inhibition, 48 h
SF-295 = system: SF-295
Hs-578T = system: Hs-578T
UO-31 = system: UO-31
IGROV-1 = system: IGROV-1
HOP-62 = system: HOP-62
NCI-H226 = system: NCI-H226
EKVX = system: EKVX
786-0 = system: 786-0
CAKI-1 = system: CAKI-1
MDA-N = system: MDA-N
RPMI-8226 = system: RPMI-8226
NCI-H23 = system: NCI-H23
SK-MEL-2 = system: SK-MEL-2
MCF7 = system: MCF7
DU-145 = system: DU-145
HCC 2998 = system: HCC 2998
MOLT-4 = system: MOLT-4
RXF 393 = system: RXF 393
SN12C = system: SN12C
K562 = system: K562

Measured: GI50

c1ccc(C[N+]23CN4CN(CN(C4)C2)C3)cc1
inactive: SF-295 > 100 µM | Hs-578T > 100 µM | UO-31 20.8 µM | IGROV-1 52.2 µM | HOP-62 69.2 µM | NCI-H226 > 100 µM | EKVX > 100 µM | 786-0 21.1 µM | CAKI-1 45.9 µM | MDA-N 94.4 µM | RPMI-8226 22.5 µM | NCI-H23 19.1 µM | SK-MEL-2 17 µM | MCF7 30.1 µM | DU-145 27.5 µM | HCC 2998 20.4 µM | MOLT-4 22.7 µM | RXF 393 18 µM | SN12C 53.2 µM | K562 29.7 µM

CN(C)/C=N/c1cc(=O)n(C)c(=O)n1C
inactive: SF-295 > 100 µM | Hs-578T > 100 µM | UO-31 > 100 µM | IGROV-1 > 100 µM | HOP-62 > 100 µM | NCI-H226 > 100 µM | EKVX > 100 µM | 786-0 > 100 µM | CAKI-1 > 100 µM | MDA-N > 100 µM | RPMI-8226 > 100 µM | NCI-H23 > 100 µM | SK-MEL-2 > 100 µM | MCF7 > 100 µM | DU-145 > 100 µM | HCC 2998 > 100 µM | MOLT-4 > 100 µM | RXF 393 > 100 µM | SN12C > 100 µM | K562 > 100 µM

CCOC(=O)CCC(NC(=O)c1ccc(Oc2nc3ccccc3nc2-c2ccccc2)cc1)C(=O)OCC (stereo not given)
inactive: SF-295 23.1 µM | Hs-578T 7.08 µM | UO-31 34 µM | IGROV-1 35.4 µM | HOP-62 11.2 µM | NCI-H226 13.2 µM | EKVX 57.9 µM | 786-0 3.67 µM | CAKI-1 19.5 µM | MDA-N 45 µM | RPMI-8226 37.6 µM | NCI-H23 17.4 µM | SK-MEL-2 31.5 µM | MCF7 > 100 µM | DU-145 41 µM | HCC 2998 > 100 µM | MOLT-4 > 100 µM | RXF 393 20.1 µM | SN12C 30.3 µM | K562 > 60.4 µM

CCCCC(=O)OC[n+]1cccc(-c2c(COC(=O)NC(C)C)c(COC(=O)NC(C)C)c3n2CCC3)c1
inactive: SF-295 52.2 µM | Hs-578T > 50.6 µM | UO-31 27 µM | IGROV-1 51.5 µM | HOP-62 56.1 µM | NCI-H226 55.7 µM | EKVX > 100 µM | 786-0 23.1 µM | CAKI-1 12.3 µM | MDA-N 99.1 µM | RPMI-8226 30 µM | NCI-H23 26.2 µM | SK-MEL-2 26.4 µM | MCF7 28.8 µM | DU-145 25.8 µM | HCC 2998 > 100 µM | MOLT-4 8.93 µM | RXF 393 22.9 µM | SN12C 31.8 µM | K562 38.6 µM

O=C(NC(O)(C(F)(F)F)C(F)(F)F)c1ccccc1
inactive: SF-295 > 100 µM | Hs-578T > 100 µM | UO-31 > 100 µM | IGROV-1 > 100 µM | HOP-62 > 100 µM | NCI-H226 51.6 µM | EKVX > 100 µM | 786-0 > 100 µM | CAKI-1 > 100 µM | MDA-N > 100 µM | RPMI-8226 > 100 µM | NCI-H23 > 100 µM | SK-MEL-2 > 100 µM | MCF7 > 100 µM | DU-145 > 100 µM | HCC 2998 > 100 µM | MOLT-4 > 100 µM | RXF 393 > 100 µM | SN12C > 100 µM | K562 > 100 µM
